Active and inactive are the calls of the source. The calls are words filed in the database; no cut-off is given here.
Columns and labels:
[1] = molecular target: Fibroblast growth factor receptor 1 (Homo sapiens, UniProt P11362); assay: biochemical; type: cell-based
Description: Inhibition of N-terminal 6-his tagged human wild type FGFR1 (458 to 765 residues) expressed in Escherichia coli BL21 cells using Tyr 04 peptide as substrate incubated for 1 hr by FRET based Z-lyte assay

[2] = Antiproliferative activity against human KATO III stomach cancer cell line measured after 3 days by CCK-8 method; type: functional, cell-based; conditions: 72 h
NCI-H520 = assay: Antiproliferative activity against human NCI-H520 cells measured after 3 days by CCK-8 method; type: functional, cell-based; conditions: NCI-H520, 72 h
SNU-16 [3] = assay: Antiproliferative activity against human SNU-16 cells measured after 3 days by CCK-8 method; type: functional, cell-based; conditions: SNU-16, 72 h
[4] = molecular target: Fibroblast growth factor receptor 2 (Homo sapiens, UniProt P21802, V564F); assay: Inhibition of FGFR2 V564F mutant (unknown origin) using (Poly (4:1 Glu, Tyr) peptide as substrate by ADP-Glo kinase assay
BaF3 [5] = assay: Inhibition of AKT phosphorylation in mouse BaF3 cells harbouring FGFR2 V564F mutant measured after 6 hrs by Western blot analysis; type: cell-based; conditions: dose 0-1000 nM
[6] = Induction of cell cycle arrest in human KATO III stomach cancer cell line assessed as accumulation of cells at G1 phase at 100 nM measured after 24 hrs by PI staining based flow cytometry analysis (reference value: 29.8%); type: functional
[7] = Metabolic stability in human liver microsomes assessed as intrinsic clearance at 1 uM measured upto 45 mins in presence of NADPH by HPLC-MS/MS analysis; type: ADME, Microsome; conditions: read-out: CLH
[8] = Induction of apoptosis in human KATO III stomach cancer cell line assessed as late apoptotic cells at 10 nM incubated for 48 hrs by annexin V-FITC/PI staining based flow cytometry analysis (reference value: 6.39%); type: functional
KATO III = assay: Induction of cell cycle arrest in human KATO III stomach cancer cell line assessed as accumulation of cells at G1 phase measured after 24 hrs by PI staining based flow cytometry analysis; type: functional; conditions: dose 10-1000 nM
[9] = Metabolic stability in human liver microsomes assessed as hepatic clearance at 1 uM measured upto 45 mins in presence of NADPH by HPLC-MS/MS analysis; type: ADME, Microsome
[10] = Induction of apoptosis in human KATO III stomach cancer cell line assessed as early apoptotic cells at 1000 nM incubated for 48 hrs by annexin V-FITC/PI staining based flow cytometry analysis (reference value: 3.40%); type: functional
[11] = Induction of apoptosis in human KATO III stomach cancer cell line assessed as early apoptotic cells at 100 nM incubated for 48 hrs by annexin V-FITC/PI staining based flow cytometry analysis (reference value: 3.40%); type: functional
[12] = molecular target: Fibroblast growth factor receptor 3 (Homo sapiens, UniProt P22607); assay: Inhibition of FGFR3 (unknown origin) using Tyr 04 peptide as substrate incubated for 1 hr by FRET based Z-lyte assay
BaF3 [13] = assay: Antiproliferative activity against mouse BaF3 cells harbouring FGFR2 V564F mutant assessed as reduction in cell viability incubated for 72 hrs by CCK-8 method; type: functional, cell-based; conditions: BaF3, 72 h
[14] = Induction of apoptosis in human KATO III stomach cancer cell line assessed as necrotic cells at 100 nM incubated for 48 hrs by annexin V-FITC/PI staining based flow cytometry analysis (reference value: 0.072%); type: functional
[15] = molecular target: T1, Fibroblast growth factor receptor 2 (Homo sapiens, UniProt P21802); assay: Inhibition of FGFR2 phosphorylation in human SNU-16 measured after 2 hrs by Western blot analysis; type: cell-based; conditions: dose 0-300 nM
Target sequence in this assay (P21802 22-821 limits assumed): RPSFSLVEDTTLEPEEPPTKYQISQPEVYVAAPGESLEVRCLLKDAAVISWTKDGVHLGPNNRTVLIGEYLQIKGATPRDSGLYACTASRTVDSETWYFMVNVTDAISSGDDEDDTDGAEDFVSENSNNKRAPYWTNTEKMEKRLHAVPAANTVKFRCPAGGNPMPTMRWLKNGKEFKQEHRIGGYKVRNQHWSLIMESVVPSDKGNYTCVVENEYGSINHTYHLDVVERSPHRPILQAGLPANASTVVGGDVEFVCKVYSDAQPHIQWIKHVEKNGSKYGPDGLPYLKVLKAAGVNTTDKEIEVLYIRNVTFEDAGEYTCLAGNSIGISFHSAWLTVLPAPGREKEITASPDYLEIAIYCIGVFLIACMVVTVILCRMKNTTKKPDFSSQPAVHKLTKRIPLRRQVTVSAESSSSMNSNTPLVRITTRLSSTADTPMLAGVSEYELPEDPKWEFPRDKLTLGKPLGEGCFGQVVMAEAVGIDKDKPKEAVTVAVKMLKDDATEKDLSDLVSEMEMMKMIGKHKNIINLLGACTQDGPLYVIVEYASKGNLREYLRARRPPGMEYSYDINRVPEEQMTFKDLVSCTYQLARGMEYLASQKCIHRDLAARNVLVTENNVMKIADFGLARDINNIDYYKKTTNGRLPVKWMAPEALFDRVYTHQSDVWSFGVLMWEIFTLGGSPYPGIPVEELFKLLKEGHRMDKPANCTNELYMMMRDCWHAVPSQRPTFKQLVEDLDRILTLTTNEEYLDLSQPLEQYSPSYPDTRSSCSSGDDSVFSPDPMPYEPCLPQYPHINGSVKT

[16] = Induction of cell cycle arrest in human KATO III stomach cancer cell line assessed as accumulation of cells at G2 phase at 1000 nM measured after 24 hrs by PI staining based flow cytometry analysis (reference value: 42.5%); type: functional
[17] = Induction of cell cycle arrest in human KATO III stomach cancer cell line assessed as accumulation of cells at G1 phase at 1000 nM measured after 24 hrs by PI staining based flow cytometry analysis (reference value: 29.8%); type: functional
[18] = Induction of apoptosis in human KATO III stomach cancer cell line assessed as viable cells at 1000 nM incubated for 48 hrs by annexin V-FITC/PI staining based flow cytometry analysis (reference value: 90.1%); type: functional; conditions: read-out: Activity
[19] = Induction of apoptosis in human KATO III stomach cancer cell line assessed as necrotic cells at 10 nM incubated for 48 hrs by annexin V-FITC/PI staining based flow cytometry analysis (reference value: 0.072%); type: functional
[20] = Induction of cell cycle arrest in human KATO III stomach cancer cell line assessed as accumulation of cells at G1 phase at 10 nM measured after 24 hrs by PI staining based flow cytometry analysis (reference value: 29.8%); type: functional
[21] = Induction of apoptosis in human KATO III stomach cancer cell line assessed as viable cells at 100 nM incubated for 48 hrs by annexin V-FITC/PI staining based flow cytometry analysis (reference value: 90.1%); type: functional; conditions: read-out: Activity
[22] = Induction of apoptosis in human KATO III stomach cancer cell line assessed as necrotic cells at 1000 nM incubated for 48 hrs by annexin V-FITC/PI staining based flow cytometry analysis (reference value: 0.072%); type: functional
[23] = Induction of apoptosis in human KATO III stomach cancer cell line assessed as late apoptotic cells at 1000 nM incubated for 48 hrs by annexin V-FITC/PI staining based flow cytometry analysis (reference value: 6.39%); type: functional
[24] = Induction of apoptosis in human KATO III stomach cancer cell line assessed as early apoptotic cells at 10 nM incubated for 48 hrs by annexin V-FITC/PI staining based flow cytometry analysis (reference value: 3.40%); type: functional
[25] = Induction of apoptosis in human KATO III stomach cancer cell line assessed as viable cells at 10 nM incubated for 48 hrs by annexin V-FITC/PI staining based flow cytometry analysis (reference value: 90.1%); type: functional; conditions: read-out: Activity
SNU-16 [26] = assay: Inhibition of AKT phosphorylation in human SNU-16 measured after 2 hrs by Western blot analysis; type: cell-based; conditions: dose 0-300 nM
[27] = Metabolic stability in human liver microsomes assessed as half life at 1 uM measured upto 45 mins in presence of NADPH by HPLC-MS/MS analysis; type: ADME, Microsome
[28] = Induction of cell cycle arrest in human KATO III stomach cancer cell line assessed as accumulation of cells at S phase at 100 nM measured after 24 hrs by PI staining based flow cytometry analysis (reference value: 28.3%); type: functional
[29] = molecular target: Fibroblast growth factor receptor 2 (Mus musculus) (UniProt P21803); assay: Inhibition of FGFR2 phosphorylation in mouse BaF3 cells harbouring FGFR2 V564F mutant measured after 6 hrs by Western blot analysis; type: cell-based; conditions: dose 0-1000 nM
BaF3 [30] = assay: Effect on AKT protein level in mouse BaF3 cells harbouring FGFR2 V564F mutant at 0 to 1000 nM measured after 6 hrs by Western blot analysis; type: functional, cell-based; conditions: dose 0-1000 nM
BaF3 [31] = assay: Effect on FGFR2 protein level in mouse BaF3 cells harbouring FGFR2 V564F mutant at 0 to 1000 nM measured after 6 hrs by Western blot analysis; type: functional, cell-based; conditions: dose 0-1000 nM
[32] = Induction of apoptosis in human KATO III stomach cancer cell line assessed as late apoptotic cells at 100 nM incubated for 48 hrs by annexin V-FITC/PI staining based flow cytometry analysis (reference value: 6.39%); type: functional
[33] = molecular target: T1, Fibroblast growth factor receptor 2; assay: biochemical; type: cell-based
Target sequence in this assay (P21802 whole entry): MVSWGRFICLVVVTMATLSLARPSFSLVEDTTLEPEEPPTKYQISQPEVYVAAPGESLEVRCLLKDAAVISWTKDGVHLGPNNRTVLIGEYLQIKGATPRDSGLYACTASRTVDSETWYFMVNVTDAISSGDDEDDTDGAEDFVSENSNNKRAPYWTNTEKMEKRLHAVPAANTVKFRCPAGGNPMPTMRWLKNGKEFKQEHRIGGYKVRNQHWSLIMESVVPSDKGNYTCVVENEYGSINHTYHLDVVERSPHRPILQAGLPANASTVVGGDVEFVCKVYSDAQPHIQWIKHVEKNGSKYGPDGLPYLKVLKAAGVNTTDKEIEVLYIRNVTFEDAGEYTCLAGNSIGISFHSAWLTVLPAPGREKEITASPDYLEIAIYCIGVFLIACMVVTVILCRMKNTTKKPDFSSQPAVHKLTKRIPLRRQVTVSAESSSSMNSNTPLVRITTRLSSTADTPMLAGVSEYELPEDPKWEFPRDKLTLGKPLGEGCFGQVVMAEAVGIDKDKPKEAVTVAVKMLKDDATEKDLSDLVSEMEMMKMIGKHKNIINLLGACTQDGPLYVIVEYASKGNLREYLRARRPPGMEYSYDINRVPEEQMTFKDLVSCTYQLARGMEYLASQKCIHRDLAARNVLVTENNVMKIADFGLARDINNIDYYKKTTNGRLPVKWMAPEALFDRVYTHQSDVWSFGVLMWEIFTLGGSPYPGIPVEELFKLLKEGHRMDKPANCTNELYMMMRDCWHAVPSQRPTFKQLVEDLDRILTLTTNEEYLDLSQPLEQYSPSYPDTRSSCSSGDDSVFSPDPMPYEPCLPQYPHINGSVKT
Description: Inhibition of N-terminal 6-his tagged human wild type FGFR2 (458 to 768 residues) expressed in Escherichia coli BL21 cells using Tyr 04 peptide as substrate incubated for 1 hr by FRET based Z-lyte assay

[34] = Induction of cell cycle arrest in human KATO III stomach cancer cell line assessed as accumulation of cells at S phase at 10 nM measured after 24 hrs by PI staining based flow cytometry analysis (reference value: 28.3%); type: functional
[35] = Metabolic stability in human liver microsomes assessed as hepatic extraction ratio at 1 uM measured upto 45 mins in presence of NADPH by HPLC-MS/MS analysis; type: ADME, Microsome; conditions: read-out: ERH

Fibroblast growth factor receptor 1, sequence (P11362 whole entry): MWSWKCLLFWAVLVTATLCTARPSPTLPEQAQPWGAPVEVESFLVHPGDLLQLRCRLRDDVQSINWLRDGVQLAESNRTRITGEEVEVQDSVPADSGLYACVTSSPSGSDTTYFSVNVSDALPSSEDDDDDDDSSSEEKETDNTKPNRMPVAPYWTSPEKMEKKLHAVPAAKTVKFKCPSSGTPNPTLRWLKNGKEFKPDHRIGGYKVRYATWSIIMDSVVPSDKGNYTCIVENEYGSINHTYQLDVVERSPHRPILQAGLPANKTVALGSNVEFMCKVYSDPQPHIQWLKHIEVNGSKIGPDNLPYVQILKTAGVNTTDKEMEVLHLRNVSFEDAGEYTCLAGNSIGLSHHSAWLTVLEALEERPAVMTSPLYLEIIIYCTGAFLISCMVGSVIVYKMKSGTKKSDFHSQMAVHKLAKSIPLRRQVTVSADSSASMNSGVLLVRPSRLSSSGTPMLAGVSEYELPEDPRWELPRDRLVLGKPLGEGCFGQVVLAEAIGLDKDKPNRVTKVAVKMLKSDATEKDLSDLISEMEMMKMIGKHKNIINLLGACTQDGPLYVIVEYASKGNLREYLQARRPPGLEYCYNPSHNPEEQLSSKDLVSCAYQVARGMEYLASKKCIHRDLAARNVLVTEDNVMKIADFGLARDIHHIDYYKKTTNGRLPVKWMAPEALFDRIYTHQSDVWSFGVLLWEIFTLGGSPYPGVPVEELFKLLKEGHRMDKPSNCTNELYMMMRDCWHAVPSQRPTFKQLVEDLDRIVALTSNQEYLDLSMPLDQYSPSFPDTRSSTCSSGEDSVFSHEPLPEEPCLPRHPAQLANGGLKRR
Fibroblast growth factor receptor 2 (Mus musculus), sequence (P21803 whole entry): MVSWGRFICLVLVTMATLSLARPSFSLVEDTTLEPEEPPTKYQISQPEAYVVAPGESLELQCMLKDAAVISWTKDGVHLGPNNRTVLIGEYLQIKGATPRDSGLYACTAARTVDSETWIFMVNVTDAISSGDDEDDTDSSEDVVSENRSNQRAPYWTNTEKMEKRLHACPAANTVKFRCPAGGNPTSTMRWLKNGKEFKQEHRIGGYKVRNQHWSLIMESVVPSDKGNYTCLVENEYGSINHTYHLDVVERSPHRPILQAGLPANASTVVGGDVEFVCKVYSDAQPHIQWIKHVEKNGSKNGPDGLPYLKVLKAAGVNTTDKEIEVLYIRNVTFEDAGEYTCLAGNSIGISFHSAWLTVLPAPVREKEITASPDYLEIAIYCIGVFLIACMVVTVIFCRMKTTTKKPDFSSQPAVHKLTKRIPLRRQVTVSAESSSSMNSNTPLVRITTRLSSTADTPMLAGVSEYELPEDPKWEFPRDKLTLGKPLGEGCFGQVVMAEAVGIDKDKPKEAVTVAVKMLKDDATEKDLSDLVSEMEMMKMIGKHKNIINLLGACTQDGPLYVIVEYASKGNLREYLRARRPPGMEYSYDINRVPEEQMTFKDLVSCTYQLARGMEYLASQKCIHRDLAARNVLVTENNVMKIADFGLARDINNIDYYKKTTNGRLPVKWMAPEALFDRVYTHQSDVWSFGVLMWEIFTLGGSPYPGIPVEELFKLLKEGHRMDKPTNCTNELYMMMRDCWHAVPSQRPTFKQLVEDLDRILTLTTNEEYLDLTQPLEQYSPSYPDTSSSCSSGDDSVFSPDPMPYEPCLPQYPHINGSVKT
Fibroblast growth factor receptor 3, sequence (P22607 whole entry): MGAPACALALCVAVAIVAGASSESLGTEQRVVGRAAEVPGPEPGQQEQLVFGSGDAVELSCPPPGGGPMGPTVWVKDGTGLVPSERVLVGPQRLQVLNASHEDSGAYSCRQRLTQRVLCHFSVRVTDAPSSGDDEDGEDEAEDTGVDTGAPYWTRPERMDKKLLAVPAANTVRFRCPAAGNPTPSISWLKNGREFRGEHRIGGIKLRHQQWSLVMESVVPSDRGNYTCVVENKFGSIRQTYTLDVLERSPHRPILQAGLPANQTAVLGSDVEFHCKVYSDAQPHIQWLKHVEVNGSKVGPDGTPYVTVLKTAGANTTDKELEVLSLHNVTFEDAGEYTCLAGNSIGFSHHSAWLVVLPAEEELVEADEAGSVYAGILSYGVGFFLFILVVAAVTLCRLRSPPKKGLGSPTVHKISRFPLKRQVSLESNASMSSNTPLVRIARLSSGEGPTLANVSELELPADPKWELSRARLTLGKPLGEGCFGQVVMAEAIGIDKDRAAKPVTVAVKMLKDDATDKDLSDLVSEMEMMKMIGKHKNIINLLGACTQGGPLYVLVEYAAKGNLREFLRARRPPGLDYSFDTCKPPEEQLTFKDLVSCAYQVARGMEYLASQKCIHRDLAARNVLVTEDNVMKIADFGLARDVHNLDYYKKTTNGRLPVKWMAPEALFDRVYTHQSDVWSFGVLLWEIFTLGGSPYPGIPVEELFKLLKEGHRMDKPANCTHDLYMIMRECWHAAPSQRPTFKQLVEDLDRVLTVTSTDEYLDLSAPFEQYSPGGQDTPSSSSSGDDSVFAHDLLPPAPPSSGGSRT
Fibroblast growth factor receptor 2 (Homo sapiens, UniProt P21802, V564F), sequence (P21802 22-821 V564F limits assumed): as the sequence (P21802 22-821 limits assumed) above, with V543F counted along it

C=CC(=O)Nc1ccc(Cn2nc(C#Cc3cc(OC)cc(OC)c3)c3c(N)ncnc32)cc1
IC50 [1]: 660 nM

C=CC(=O)Nc1ccc(Cn2nc(C#Cc3c(F)cc4[nH]c(C)nc4c3F)c(C(N)=O)c2N)cc1
IC50 [1]: 130 nM

C=CC(=O)Nc1ccc(Cn2nc(C#Cc3ccc4oc(C)nc4c3)c(C(N)=O)c2N)cc1
IC50 [1]: 610 nM

C=CC(=O)Nc1ccc(Cn2nc(C#Cc3ccc4[nH]c(C)nc4c3)c(C(N)=O)c2N)cc1
IC50 [1]: 320 nM

C=CC(=O)Nc1cccc(Cn2nc(C#Cc3c(F)cc4[nH]c(C)nc4c3F)c(C(N)=O)c2NC)c1
IC50 [1]: > 10000 nM

C=CC(=O)Nc1ccc(Cn2nc(C#Cc3ccc4sc(C)nc4c3)c(C(N)=O)c2N)cc1
IC50 [1]: 950 nM

C=CC(=O)Nc1ccc(CCCn2nc(C#Cc3cc(OC)cc(OC)c3)c3c(N)ncnc32)cc1
IC50 [1]: 1590 nM

C=CC(=O)N1CC[C@H](n2nc(C#Cc3cc(OC)cc(OC)c3)c3c(N)ncnc32)C1 [FUTIBATINIB]
IC50 [2]: 4 nM | IC50 (NCI-H520): 14 nM | IC50 (SNU-16 [3]): 0.44 nM

C=CC(=O)Nc1ccc(Cn2nc(-c3ccc(Oc4ccccc4)cc3)c3c(N)ncnc32)cc1
IC50 [1]: 4800 nM

C=CC(=O)Nc1ccc(Cn2nc(-c3ccc(Oc4nccc(C)n4)c(F)c3)c3c(N)ncnc32)cc1
IC50 [1]: > 10000 nM

C=CC(=O)Nc1ccc(Cn2nc(-c3cc4cc(C)cc(OC)c4s3)c3c(N)ncnc32)cc1
IC50 [1]: 23 nM

C=CC(=O)Nc1cccc(Cn2nc(C#Cc3c(F)cc4[nH]c(C)nc4c3F)c(C(N)=O)c2N)c1
IC50 [4]: 62 nM | inhibition (BaF3 [5]): Dose-Dependent Effect | Activity [6]: 59.4% | CLint scaled at 1 µM [7]: 34.5 mL/min/kg | IC50 [2]: 59 nM | Activity [8]: 7.38% | Activity (KATO III): Dose-Dependent Effect | CLhep predicted at 1 µM [9]: 12.9 mL/min/kg | Activity [10]: 10.1% | Activity [11]: 8.85% | IC50 [12]: 99 nM | IC50 (BaF3 [13]): 87 nM | IC50 (NCI-H520): 73 nM | Activity [14]: 0.27% | inhibition [15]: Dose-Dependent Effect | Activity [16]: 35.7% | Activity [17]: 66.4% | viability at 1 µM [18]: 77.1% | Activity [19]: 0.065% | Activity [20]: 35.3% | viability at 0.1 µM [21]: 82.4% | Activity [22]: 0.085% | Activity [23]: 12.7% | Activity [24]: 5.84% | viability at 0.01 µM [25]: 86.7% | inhibition (SNU-16 [26]): Dose-Dependent Effect | IC50 (SNU-16 [3]): 19 nM | half-life at 1 µM [27]: 46.4 min | Activity [28]: 3.33% | inhibition [29]: Dose-Dependent Effect | Activity (BaF3 [30]): Active | Activity (BaF3 [31]): Active | Activity [32]: 8.53% | IC50 [33]: 41 nM | Activity [34]: 25.5%

C=CC(=O)Nc1ccc(Cn2nc(C#Cc3ccc(-c4c[nH]c(C)n4)cc3)c(C(N)=O)c2N)cc1
IC50 [1]: > 10000 nM

C=CC(=O)Nc1ccccc1Cn1nc(C#Cc2ccc3[nH]c(C)nc3c2)c(C(N)=O)c1N
IC50 [1]: 880 nM

C=CC(=O)Nc1cccc(Cn2nc(C#Cc3c(F)cc4[nH]c(C)nc4c3F)c(C(N)=O)c2NCCOC)c1
IC50 [1]: 2910 nM

O=C(c1ccc(F)cc1)C1CCN(CCn2c(=O)[nH]c3ccccc3c2=O)CC1 [KETANSERIN]
CLint scaled at 1 µM [7]: 36.7 mL/min/kg | CLhep predicted at 1 µM [9]: 13.2 mL/min/kg | hepatic extraction ratio at 0.75 h, 1 µM [35]: 0.639 | half-life at 1 µM [27]: 43.7 min

C=CC(=O)Nc1ccc(Cn2nc(C#Cc3ccc4[nH]c(C)nc4c3)c3c(N)ncnc32)cc1
IC50 [1]: 680 nM

C=CC(=O)Nc1ccc(CCCCn2nc(C#Cc3cc(OC)cc(OC)c3)c3c(N)ncnc32)cc1
IC50 [1]: 2340 nM

C=CC(=O)Nc1ccc(CCn2nc(C#Cc3cc(OC)cc(OC)c3)c3c(N)ncnc32)cc1
IC50 [1]: 3460 nM

C=CC(=O)Nc1ccc(Cn2nc(-c3ccc4[nH]c(C)nc4c3)c3c(N)ncnc32)cc1
IC50 [1]: 2000 nM

C=CC(=O)Nc1cccc(Cn2nc(C#Cc3c(F)cc4[nH]c(C)nc4c3F)c(C(N)=O)c2NCC)c1
IC50 [1]: > 10000 nM
